Assay [1] has as its target T1, human NK-3 receptor (Homo sapiens, UniProt P29371).
T1 sequence (P29371 1-465): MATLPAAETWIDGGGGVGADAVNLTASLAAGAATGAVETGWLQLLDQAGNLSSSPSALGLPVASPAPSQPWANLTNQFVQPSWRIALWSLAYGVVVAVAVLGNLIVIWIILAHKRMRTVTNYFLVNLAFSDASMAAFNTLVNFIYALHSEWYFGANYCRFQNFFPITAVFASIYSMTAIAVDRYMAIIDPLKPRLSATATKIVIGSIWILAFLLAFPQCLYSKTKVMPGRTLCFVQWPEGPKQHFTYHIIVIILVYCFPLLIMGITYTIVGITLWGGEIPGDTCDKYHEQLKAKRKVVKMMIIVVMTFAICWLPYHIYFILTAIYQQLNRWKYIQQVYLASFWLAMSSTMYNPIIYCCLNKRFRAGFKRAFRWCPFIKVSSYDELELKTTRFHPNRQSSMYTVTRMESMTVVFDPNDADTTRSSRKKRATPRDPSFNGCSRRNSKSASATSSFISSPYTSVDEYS
Kind of assay: cell-based.
Protocol: Aequorin Assay with Human NK-3 Receptor.
The efficacy of compounds of the invention to inhibit NKA-mediated NK-3 receptor activation was assessed by an in vitro Aequorin functional assay. Chinese Hamster Ovary recombinant cells expressing the human NK-3 receptor and a construct that encodes the photoprotein apoaequorin were used for this assay. In the presence of the cofactor coelenterazine, apoaequorin emits a measurable luminescence that is proportional to the amount of intracellular (cytoplasmic) free calcium.
The antagonist activity of compounds of the invention is measured following pre-incubation (3 minutes) of the compound (at various concentrations) with the cells, followed by addition of the reference agonist (NKA) at a final concentration equivalent to the EC80 (3 nM) and recording of emitted light (FDSS 6000 Hamamatsu) over the subsequent 90-second period. The intensity of the emitted light is integrated using the reader software. Compound antagonist activity is measured based on the concentration-dependent inhibition of the luminescence response to the addition of Neurokinin A.

In assay [2] the target is T1, human NK-3 receptor. The experiment in a line: 3H-SB222200 binding competition assay with human NK-3 receptor. Also noted: expressed in transfected cells; membranes. As to conditions: read-out: Competitive binding assay with human NK-3 receptor hNK-3 (Ki). As to the method:
The affinity of compounds of the invention for the human NK-3 receptor was determined by measuring the ability of compounds of the invention to competitively and reversibly displace a well-characterized NK-3 radioligand in a concentration-dependent manner.
Membranes were prepared from Chinese hamster ovary recombinant cells stably expressing the human NK-3 receptor. The membranes were incubated with 5 nM ^3H-SB222200 (ARC) in a HEPES 25 mM/NaCl 0.1M/CaCl2 1 mM/MgCl2 5 mM/BSA 0.5%/Saponin 10 μg/ml buffer at pH 7.4 and various concentrations of compounds of the invention. The amount of ^3H-SB222200 bound to the receptor was determined after filtration by the quantification of membrane associated radioactivity using the TopCount-NXT reader (Packard).

What is called IC50 is the concentration that inhibits the measured activity by half. As a reminder, the Ki is a measure of affinity in units of concentration, obtained from inhibition or displacement. For the compound `[2H]C([2H])([2H])c1nsc(-c2nnc3n2CCN(C(=O)c2ccc(F)cc2)[C@@H]3C)n1` [Deuterated fezolinetant, (R)-(4-fluorophenyl)-(8-methyl-3-(3-(methyl-d3)-1,2,4-thiadiazol-5-yl)-5,6-dihydro-[1,2,4]trizolo[4,3-a]pyrazin-7(8H)-yl)methanone], the IC50 at human NK-3 receptor [1] came to 13 nM. Also, on human NK-3 receptor [2], the Ki stood at 17 nM.

The record behind these values is US11078203B2 (OGEDA SA, priority 2017, dated 2021).
